Some results are limits rather than exact numbers.

This test has as its target T1, NS3 (West Nile virus, UniProt K4FQI5).
T1 sequence (K4FQI5 whole entry): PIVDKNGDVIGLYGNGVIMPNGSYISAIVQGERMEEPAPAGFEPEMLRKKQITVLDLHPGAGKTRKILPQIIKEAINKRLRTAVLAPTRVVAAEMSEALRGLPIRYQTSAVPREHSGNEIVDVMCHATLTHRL
As to the kind of experiment: Functional biochemical assay to identify treatments for viral infectious disease that targets West Nile NS2B-NS3 protease. Utilizing a direct enzyme activity measurement method, reading the fluorescence intensity is used to characterize the relative potency of inhibitors as IC50. Set-up: species or system NY-99.
As usually defined, the IC50 is the concentration at which inhibition is half-maximal. A lower IC50 goes with inhibition by little substance. For the compound `COc1ccc(S(=O)(=O)n2nc(OC(=O)c3cccc(-c4ccccc4Cl)c3)cc2N)cc1`, the IC50 came to 1.09 µM.

`COc1cc(Br)cc(C(=O)Nc2ccc3c(c2)CNC3)c1`: the IC50 amounted to 92.7 µM.

Turning to `Cc1cc(CN)cc(NC(=O)c2cc(Cl)cc3[nH]ncc23)c1`, the IC50 was 22.6 µM.

As to `O=C(Nc1ccc2c(c1)CNCCC2)c1cc(Cl)cc2[nH]ncc12`, the IC50 came to 3.25 µM.

Compound `CNC(=O)[C@H](Nc1ccc2c(c1)CNC2)c1cc(Cl)cc2[nH]ncc12` returned an IC50 of 0.677 µM.

`O=C(Nc1ccc2c(c1)CNC2)c1cc(Br)cc2c1OCO2` returned an IC50 of more than 99.5 µM.

For the compound `NCCc1cccc(NC(=O)c2cc(Cl)cc3[nH]ncc23)c1`, the midpoint of inhibition, the IC50, lay at 94.5 µM.

In the case of `O=C(Nc1ccc2c(c1)CCNCC2)c1cc(Cl)cc2[nH]ncc12`, the IC50 was determined as 48.5 µM.

For `O=C(Nc1ccc2c(n1)CNC2)c1cc(Cl)cc2[nH]ncc12`, the IC50 is 35.2 µM.

As to `Cn1ncc2c(C(=O)Nc3ccc4c(c3)CNC4)cc(Br)cc21`, the IC50 is 47.2 µM.

Compound `N[C@H]1Cc2ccc(NC(=O)c3cc(Cl)cc4[nH]ncc34)cc2C1` came in with an IC50 of 51.6 µM.

In turn, `N#Cc1cc(C(=O)Nc2ccc3c(c2)CNC3)cc(C(F)(F)F)c1` came in with an IC50 of 98.1 µM.

Take `Cc1ncc(-c2cc(F)cc(C(=O)Nc3ccc4c(c3)CNC4)c2)o1`: the midpoint of inhibition, the IC50, lay at 6.67 µM.

`O=C(O)c1ccc(-c2cc(NC(=O)c3cc(F)cc4[nH]ncc34)cc3c2CNC3)cc1` showed an IC50 of 1.15 µM.

Turning to `O=C(Nc1ccc2c(c1)CNC2)c1cc(F)cc(C=C2CCS(=O)(=O)CC2)c1`, the IC50 came out at 14.5 µM.

`CO[C@H]1C[C@H](n2cc3c(C(=O)Nc4ccc5c(c4)CNC5)cc(Cl)cc3n2)C1` had an IC50 of 13.9 µM.

Compound `O=C(Nc1ccc2c(c1)CNC2)c1cc(F)cc(-c2cn[nH]c2)c1` displayed an IC50 of 0.691 µM.

The compound `N#Cc1cccc(-c2nc3c(C(=O)Nc4ccc5c(c4)CNC5)cc(F)cc3[nH]2)c1` showed an IC50 of 3.76 µM.

`O=C(Nc1cc2c(c(-c3c[nH]c(=O)c(F)c3)c1)CNC2)c1cc(F)cc2[nH]ncc12`: half-maximal inhibition (IC50) required 0.668 µM.

`COC[C@]1(c2nc3c(C(=O)Nc4ccc5c(c4)CNC5)cc(F)cc3[nH]2)CCOC1` came in with an IC50 of 20.5 µM.

Regarding `N#Cc1c[nH]c2ccc(C(=O)Nc3ccc4c(c3)CNC4)cc12`, it took 9.06 µM to reach half-maximal inhibition (IC50).

Compound `O=C(Nc1ccc2c(c1)CNC2)c1cc(F)cc(C2=CCCOC2)c1` gave an IC50 of 9.61 µM.

The compound `CNC(=O)[C@H](Nc1ccc2c(c1)CNC2)c1cc(Cl)cc2[nH]c(-c3ccccc3)nc12` displayed an IC50 of 0.281 µM.

`CC(C)Cn1cc2c(C(=O)Nc3ccc4c(c3)CNC4)cc(Cl)cc2n1` came in with an IC50 of 14.7 µM.

For `O=C(Nc1ccc2c(c1)CNC2)c1cc(Cl)cc2nn(C3CCOCC3)cc12`, the IC50 is 14 µM.

On to `O=C(NCCCF)[C@H](Nc1ccc2c(c1)CNC2)c1cc(Cl)cc(C2CC2)c1`, for which the IC50 turned out to be 0.249 µM.

`COC(=O)[C@H](C)n1cc2c(C(=O)Nc3ccc4c(c3)CNC4)cc(Cl)cc2n1` gave an IC50 of 9.12 µM.

As to `O=C(Nc1ccc2c(c1)CNC2)c1cc(F)cc(-c2ccc3c(=O)[nH]ncc3c2)c1`, the IC50 came out at 5.15 µM.

In turn, `COCn1ncc2c(C(=O)Nc3ccc4c(c3)CNC4)cc(Cl)cc21` displayed an IC50 of 3.73 µM.

For `COc1cccc(-c2nc3c(C(=O)Nc4ccc5c(c4)CNC5)cc(F)cc3[nH]2)c1`, it took 6.6 µM to reach half-maximal inhibition (IC50).

As for `CO[C@H]1C[C@H](n2ncc3c(C(=O)Nc4ccc5c(c4)CNC5)cc(Cl)cc32)C1`, the IC50 was 2.55 µM.

`CC(C)c1nn(C)cc1-c1cc(F)cc(C(=O)Nc2ccc3c(c2)CNC3)c1` yielded an IC50 of 11.9 µM.

On to `NCCc1cc(Cl)cc(C(=O)Nc2cccc(CN)c2)c1`, for which half-maximal inhibition (IC50) was put at 5.52 µM.

Take `COc1cc(C(=O)Nc2ccc3c(c2)CNC3)cc2ccoc12`: the IC50 was found to be 48.9 µM.

The compound `CN(C)c1nc(-c2cc(F)cc(C(=O)Nc3ccc4c(c3)CNC4)c2)cs1` had an IC50 of 12.6 µM.

`O=C(Nc1ccc2c(c1)CNC2)c1cc(Cl)cc2nn(C3COC3)cc12`: the IC50 amounted to 42.5 µM.

With `CCCn1cc2c(C(=O)Nc3ccc4c(c3)CNC4)cc(Cl)cc2n1`, inhibition was half-maximal at 1.97 µM (IC50).

Consider `CCNC(=O)Nc1cc(Cl)cc(C(=O)Nc2cc(C)cc(CN)c2)c1`, for which the IC50 was 19.8 µM.

In the case of `O=C(NCCOCC1CC1)[C@H](Nc1ccc2c(c1)CNC2)c1cc(Cl)cc(C2CC2)c1`, the midpoint of inhibition, the IC50, lay at 0.366 µM.

On to `O=C1CCc2c(cccc2C(=O)Nc2ccc3c(c2)CNC3)N1`, for which inhibition was half-maximal at 10.8 µM (IC50).

Take `CCCCNC(=O)[C@H](Nc1ccc2c(c1)CNC2)c1cc(Cl)cc(C2CC2)c1`: the IC50 is 0.295 µM.

As to `N#Cc1cc2c(cc1NC(=O)c1cc(F)cc3[nH]ncc13)CNC2`, the IC50 turned out to be 0.242 µM.

`O=C(Nc1ccc2c(c1)CNC2)c1cc(F)cc(-c2cccnc2)c1`: it took 2.68 µM to reach half-maximal inhibition (IC50).

`O=C(NCC(F)F)[C@H](Nc1ccc2c(c1)CNC2)c1cc(Br)cc2[nH]ccc12`: inhibition was half-maximal at 0.556 µM (IC50).

`Cc1cccc(-c2nc3c(C(=O)Nc4ccc5c(c4)CNC5)cc(F)cc3[nH]2)c1` gave an IC50 of 26 µM.

In the case of `O=C(Nc1ccc2c(c1)CNC2)c1cccc2c1[C@]1(CCNC1)C(=O)N2`, the IC50 turned out to be 1.62 µM.

Turning to `Cc1ncc(-c2cc(F)cc(C(=O)Nc3ccc4c(c3)CNC4)c2)s1`, the IC50 is 2.28 µM.

Consider `CO[C@H](C)Cn1cc2c(C(=O)Nc3ccc4c(c3)CNC4)cc(Cl)cc2n1`, for which the IC50 was 19.8 µM.

`CC(C)NC(=O)[C@H](Nc1ccc2c(c1)CN(C)C2)c1cc(Cl)cc2[nH]ncc12` returned an IC50 of 1.67 µM.

With `O=C(Nc1ccc2c(c1)CNC2)c1cc(F)cc(-c2c[nH]c(=O)c(F)c2)c1`, the IC50 was found to be 0.665 µM.

`C=Cc1cc2c(cc1NC(=O)c1cc(F)cc3[nH]ncc13)CNC2` had a half-inhibitory concentration (IC50) of 0.489 µM.

In turn, `O=C(Nc1ccc2c(c1)CNC2)c1cc(F)cc2[nH]c(-c3ccccc3F)nc12` had an IC50 of 2.39 µM.

In the case of `O=C(Nc1cc2c(cc1C1CC1)CNC2)c1cc(F)cc2[nH]ncc12`, the IC50 was determined as 0.832 µM.

Take `CCNC(=O)Nc1cc(Cl)cc(C(=O)Nc2cccc(CN)c2)c1`: the IC50 came to 21.6 µM.

As to `O=C(Nc1ccc2c(c1)CNC2)c1cc(Cl)cc2c1cnn2C[C@H]1CCCO1`, half-maximal inhibition (IC50) was put at 6.08 µM.

As for `O=C(Nc1ccc2c(c1)CNC2)c1cc(F)cc(/C=C/c2ccccc2)c1`, it took 2.91 µM to reach half-maximal inhibition (IC50).

The compound `O=C(Nc1ccc2c(c1)CN[C@H]2[C@H](O)CO)c1cc(F)cc2[nH]ncc12` showed a half-inhibitory concentration (IC50) of 6.73 µM.

The compound `C[C@]1(O)C(=O)Nc2cc(F)cc(C(=O)Nc3ccc4c(c3)CNC4)c21` yielded an IC50 of 5.58 µM.

`NCc1cccc(NC(=O)c2cc(Cl)cc3[nH]ncc23)c1` had an IC50 of 35.8 µM.

As for `Cn1ncc2c(C(=O)Nc3ccc4c(c3)CNC4)cc(Cl)cc21`, the concentration for half-maximal inhibition (IC50) stood at 1.88 µM.

The compound `O=C(Nc1ccc2c(c1)CN[C@H]2CCO)c1cc(F)cc2[nH]ncc12` gave an IC50 of 1.66 µM.

Consider `CCc1cccc(-c2nc3c(C(=O)Nc4ccc5c(c4)CNC5)cc(F)cc3[nH]2)c1`, for which the IC50 amounted to 18.9 µM.

`Cc1cnccc1-c1cc(NC(=O)c2cc(F)cc3[nH]ncc23)cc2c1CNC2` registered an IC50 of 2.77 µM.

Take `O=C(Nc1ccc2c(c1)CNC2)c1cc(F)cc2[nH]c(-c3ccc(F)cc3)nc12`: half-maximal inhibition (IC50) required 5.37 µM.

Take `O=C(O)CCCc1cc(NC(=O)c2cc(F)cc3[nH]ncc23)cc2c1CNC2`: the IC50 was 1.51 µM.

In turn, `CC(C)n1ncc2c(C(=O)Nc3ccc4c(c3)CNC4)cc(Cl)cc21` had an IC50 of 18.2 µM.

The compound `O=C(Nc1ccc2c(c1)CNC2)c1cc(Cl)cc2nn(C3CCC3)cc12` returned an IC50 of 14.7 µM.

Regarding `Cn1ccc(-c2cc(F)cc(C(=O)Nc3ccc4c(c3)CNC4)c2)cc1=O`, the IC50 is 2.23 µM.

`Cc1cc(-c2cc(F)cc(C(=O)Nc3ccc4c(c3)CNC4)c2)[nH]n1` registered a concentration for half-maximal inhibition (IC50) of 3.74 µM.

Turning to `O=C(Nc1ccc2c(c1)CNC2)c1cc(Cl)cc2c1cnn2C1CCOCC1`, half-maximal inhibition (IC50) was put at 1.45 µM.

With `Cn1cc2c(C(=O)Nc3ccc4c(c3)CNC4)cc(Cl)cc2n1`, the IC50 stood at 15.1 µM.

In the case of `O=C(Nc1ccc2c(c1)CNC2)c1cc(F)cc(C2=CCOCC2)c1`, the IC50 stood at 9.32 µM.

On to `C=CC[C@H]1NCc2cc(N[C@H](C(=O)NCC(F)F)c3cc(Cl)cc(C4CC4)c3)ccc21`, for which half-maximal inhibition (IC50) required 0.289 µM.

For `O=C(Nc1ccc2c(c1)CNC2)c1cc(F)cc2[nH]c(-c3ccc(F)cc3O)nc12`, the IC50 came to 24.1 µM.

`COc1cc(-c2cc(NC(=O)c3cc(F)cc4[nH]ncc34)cc3c2CNC3)ccn1` displayed an IC50 of 0.801 µM.

Compound `CS(=O)(=O)N1CC[C@]2(C1)C(=O)Nc1cccc(C(=O)Nc3ccc4c(c3)CNC4)c12` displayed an IC50 of 6.28 µM.

In turn, `CSCCCNC(=O)[C@H](Nc1ccc2c(c1)CNC2)c1cc(Cl)cc(C2CC2)c1` showed an IC50 of 0.573 µM.

The compound `CC(C)(c1nc2c(C(=O)Nc3ccc4c(c3)CNC4)cc(F)cc2[nH]1)S(C)(=O)=O` gave an IC50 of 9.71 µM.

Consider `CC(C)n1cc2c(C(=O)Nc3ccc4c(c3)CNC4)cc(Cl)cc2n1`, for which the IC50 stood at 1.73 µM.

The compound `COCCCNC(=O)[C@H](Nc1ccc2c(c1)CNC2)c1cc(Cl)cc(C2CC2)c1` returned a half-maximal inhibitory concentration (IC50) of 0.583 µM.

Compound `NCCc1csc2cc(C(=O)Nc3ccc4c(c3)CNC4)ccc12` yielded an IC50 of 2.09 µM.

With `O=C(Nc1ccc2c(c1)CN[C@H]2C[C@H](O)CO)c1cc(Cl)cc2[nH]ncc12`, the midpoint of inhibition, the IC50, lay at 5.56 µM.

`O=C(Nc1ccc2c(c1)CNC2)c1cc(F)c2[nH]c(=O)[nH]c2c1` came in with an IC50 of 18 µM.

As for `C=C[C@H]1NCc2cc(NC(=O)c3cc(F)cc4[nH]ncc34)ccc21`, the IC50 worked out at 3.07 µM.

For `CCCn1ncc2c(C(=O)Nc3ccc4c(c3)CNC4)cc(Cl)cc21`, half-maximal inhibition (IC50) was put at 12.5 µM.

`O=C(Nc1cc2c(c(C3=CCS(=O)(=O)CC3)c1)CNC2)c1cc(F)cc2[nH]ncc12` returned an IC50 of 0.892 µM.

In turn, `O=C(Nc1cc2c(c(-c3ccnnc3)c1)CNC2)c1cc(Cl)cc2[nH]ncc12` had an IC50 of 3.06 µM.

In turn, `O=C(Nc1ccc2c(c1)CNC2)c1cc(Cl)cc2c1cnn2C1CCC1` showed an IC50 of 1.7 µM.

Take `O=C(Nc1ccc2c(c1)CNC2)c1cc(F)cc(-c2ccncc2)c1`: the IC50 came to 3.65 µM.

`O=C(Nc1cc2c(c(C3=CCOCC3)c1)CNC2)c1cc(F)cc2[nH]ncc12` displayed an IC50 of 0.627 µM.

Source of the values: ChEMBL document CHEMBL5604061, “ASAP - WNV NS2B-NS3 protease fluorescence dose response” (2024).
